Measured values reported in US10577356B2, “Beta-arrestin-biased cannabinoid CB1 receptor agonists and methods for making and using them” (priority 2014, dated 2020).
Entries after “also recorded” stand apart in the source; their conditions may differ.

Legend:
CB1 [1] = molecular target: T1, CB1 (Homo sapiens, UniProt P21554); assay: Effect on CP55,940 binding (Bmax) at CB1 (FIG. 3); details: compared with ORG27569
Target sequence in this assay (P21554 whole entry, species assumed): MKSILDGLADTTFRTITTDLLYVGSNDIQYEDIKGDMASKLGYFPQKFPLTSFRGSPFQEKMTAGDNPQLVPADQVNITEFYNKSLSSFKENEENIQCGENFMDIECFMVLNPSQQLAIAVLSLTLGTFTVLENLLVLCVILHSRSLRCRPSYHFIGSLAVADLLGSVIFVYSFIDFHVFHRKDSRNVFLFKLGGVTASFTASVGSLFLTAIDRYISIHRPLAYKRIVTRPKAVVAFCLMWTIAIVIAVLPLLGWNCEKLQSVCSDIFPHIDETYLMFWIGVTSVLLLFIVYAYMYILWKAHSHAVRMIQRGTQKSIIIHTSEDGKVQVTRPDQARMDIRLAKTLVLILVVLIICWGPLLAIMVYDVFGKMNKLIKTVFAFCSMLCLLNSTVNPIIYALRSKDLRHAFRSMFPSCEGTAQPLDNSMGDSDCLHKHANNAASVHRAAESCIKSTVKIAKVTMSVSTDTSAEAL

CB1 [2] = molecular target: T1, CB1; assay: Antagonism of CP55,940's [35S]GTPγS signaling / allosteric modulation of CB1 (FIG. 3); format: biochemical; details: compared with ORG27569
Method: (§1) Compounds were tested using a GTPγS assay as previously described (Shore D M, et al. J Biol Chem. 2014; 289(9):5828-45; incorporated herein by reference in its entirety). Compounds were tested using an ERK assay as previously described (Kapur A, et al. J Biol Chem. 2009; 284:29817-29827; incorporated herein by reference in its entirety).
Target sequence in this assay (P21554 whole entry, species assumed): as above

CB1 [3] = molecular target: T2, CB1 (Mus musculus, UniProt P47746); assay: Basal G protein signaling, GTP-gamma-S binding, compound applied alone, membranes (FIG. 4-7); format: biochemical
T2 construct: from tissue
Method: as §1

CB1 [4] = molecular target: T1, CB1; assay: ERK assay, pERK production in cells (FIG. 8, FIG. 10); format: cell-based; details: compound applied alone
Method: as §1
Target sequence in this assay (P21554 whole entry, species assumed): as above

CB1 [5] = molecular target: T1, CB1; assay: GTPγS stimulation levels in hCB1/HEK cells (FIG. 9); format: biochemical; parameters: expressed in transfected cells; host or cells: HEK cells (hCB1/HEK); details: compound applied alone
Method: as §1
Target sequence in this assay (P21554 whole entry): as the sequence (P21554 whole entry, species assumed) above

T2 sequence (P47746 whole entry): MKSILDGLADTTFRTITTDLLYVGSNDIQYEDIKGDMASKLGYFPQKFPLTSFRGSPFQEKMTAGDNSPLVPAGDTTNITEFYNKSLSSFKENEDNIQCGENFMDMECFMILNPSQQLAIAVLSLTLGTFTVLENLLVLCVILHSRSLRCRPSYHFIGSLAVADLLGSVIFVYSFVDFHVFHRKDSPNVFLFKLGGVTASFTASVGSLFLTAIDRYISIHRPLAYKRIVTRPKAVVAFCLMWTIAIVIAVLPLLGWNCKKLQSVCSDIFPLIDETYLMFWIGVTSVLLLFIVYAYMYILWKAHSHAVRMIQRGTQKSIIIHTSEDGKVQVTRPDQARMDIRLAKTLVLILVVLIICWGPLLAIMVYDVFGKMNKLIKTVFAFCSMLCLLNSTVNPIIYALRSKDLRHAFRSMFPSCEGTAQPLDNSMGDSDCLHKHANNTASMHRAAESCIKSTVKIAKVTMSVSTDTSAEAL

Structure (SMILES)	effect on CP55,940's Bmax (CB1 [1])	allosteric modulation of CB1 (effects on binding and G protein-mediated signaling) (CB1 [2])	effect on basal G protein signaling (GTP-gamma-S binding) (CB1 [3])	ERK signaling / pERK production (CB1 [4])	GTP-gamma-S binding at the human CB1 receptor (CB1 [5])	antagonism of CP55,940's [35S]GTPλS signaling (CB1 [2])
CCc1c(C(=O)NCCc2ccc(N3CCCCC3)cc2C2CC2)[nH]c2ccc(Cl)cc12 [Compound 3, 5-Chloro-N-{2-[2-cyclopropyl-4-(piperidin-1-yl)phenyl]ethyl}-3-ethyl-1H-indole-2-carboxamide]	does not improve CP55,940's Bmax (and may actually reduce it)	does not act as an allosteric modulator of CB1	no effect on GTP-gamma-S binding	robust effect, particularly at early time points, compared to CP (CP55,940); also recorded: does generate an ERK signal	no effect on GTP-gamma-S binding; also recorded: did not have any significant effect on [^35S]GTPλS signaling when applied alone	
CCc1c(C(=O)NC[C@@H](O)c2ccc(N3CCCCC3)cc2)[nH]c2ccc(Cl)cc12 [Compound 1, 5-Chloro-3-ethyl-N-[(2S)-2-hydroxy-2-[4-(piperidin-1-yl)phenyl]ethyl]-1H-indole-2-carboxamide]	does not improve CP55,940's Bmax as well as ORG27569	less potent and efficacious negative allosteric modulator of CB1 than ORG27569	no effect on GTP-gamma-S binding; also recorded: does not act as an inverse agonist of [^35S]GTPλS signaling			does not antagonize CP55,940's [^35S]GTPλS signaling as well as ORG27569
CCc1c(C(=O)NCCc2ccc(N3CCCCC3)cc2)[nH]c2ccc(Cl)cc12 [ORG27569, reference compound]					causes a decrease (including below basal)	
CCc1c(C(=O)NC[C@H](O)c2ccc(N3CCCCC3)cc2)[nH]c2ccc(Cl)cc12 [Compound 2, 5-Chloro-3-ethyl-N-[(2R)-2-hydroxy-2-[4-(piperidin-1-yl)phenyl]ethyl]-1H-indole-2-carboxamide]	improves CP55,940's Bmax better than as ORG27569	more potent negative allosteric modulator than ORG27569	partial agonist in membranes; also recorded: does not act as an inverse agonist of [^35S]GTPλS signaling; also recorded: may act as a weak agonist of G protein-mediated signaling			antagonizes CP55,940's [^35S]GTPλS signaling as well as ORG27569
CCCCCCC(C)(C)c1ccc([C@@H]2C[C@H](O)CC[C@H]2CCCO)c(O)c1 [CP55940, reference compound]					causes a rise in GTP-gamma-S binding	
O=C(NCCc1ccc(N2CCCCC2)cc1)c1[nH]c2ccc(Cl)cc2c1Cc1ccccc1 [Compound 4, 3-Benzyl-5-chloro-N-{2-[4-(piperidin-1-yl)phenyl]ethyl}-1H-indole-2-carboxamide]	did not affect CP55,940's Bmax		no effect on GTP-gamma-S binding; also recorded: does not act as an inverse agonist of [^35S]GTPλS signaling	may act as a weak inverse agonist of ERK signaling		antagonized CP55,940's [^35S]GTPλS signaling as well as ORG27569
